# Source: paper PMC7070036, “An amber obligate active site-directed ligand evolution technique for phage display” (Nature Communications, 2020)
# Values joined by “and” are separate entries in the source; they are usually repeats but may differ in a detail not shown here. Equal values may be shown once. Non-standard residues stand in square brackets, D forms with d. Residues, ends and D or L forms follow the SMILES beside them. Lys(thiomyristoyl) = CCCCCCCCCCCCCC(=S)NCCCC[C@H](N)C(=O)O
# What was measured:
# Format in all cases: biochemical
# SIRT1 = target: T1, SIRT1 (Homo sapiens, UniProt Q96EB6); assay: Continuous fluorogenic sirtuin inhibition assay, SIRT1; conditions: mean ± SD of two independent experiments
# T1 sequence (Q96EB6 1-747): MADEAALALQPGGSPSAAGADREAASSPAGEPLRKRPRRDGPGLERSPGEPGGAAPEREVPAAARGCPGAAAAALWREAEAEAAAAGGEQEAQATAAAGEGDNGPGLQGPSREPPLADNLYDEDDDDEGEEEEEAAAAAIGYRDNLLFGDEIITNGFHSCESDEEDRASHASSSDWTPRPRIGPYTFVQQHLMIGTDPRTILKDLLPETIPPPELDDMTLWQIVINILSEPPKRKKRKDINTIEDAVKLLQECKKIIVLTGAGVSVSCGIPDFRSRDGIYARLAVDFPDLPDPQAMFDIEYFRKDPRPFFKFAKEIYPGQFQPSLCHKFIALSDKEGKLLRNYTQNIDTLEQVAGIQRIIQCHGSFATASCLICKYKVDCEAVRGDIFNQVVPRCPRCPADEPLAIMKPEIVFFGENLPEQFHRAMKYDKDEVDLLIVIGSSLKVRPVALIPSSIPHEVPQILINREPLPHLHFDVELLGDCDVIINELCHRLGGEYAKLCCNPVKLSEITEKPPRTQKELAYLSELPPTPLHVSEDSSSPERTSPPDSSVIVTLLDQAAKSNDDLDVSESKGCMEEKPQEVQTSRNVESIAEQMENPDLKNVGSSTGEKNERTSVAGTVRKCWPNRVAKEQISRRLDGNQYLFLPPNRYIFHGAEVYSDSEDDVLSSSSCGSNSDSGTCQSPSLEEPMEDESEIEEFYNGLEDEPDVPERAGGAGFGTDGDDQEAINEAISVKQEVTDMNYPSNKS
# Procedure: The continuous assay for comparing isoform specificity of S2P04 was performed using the universal fluorogenic sirtuin substrate described by Schuster et al.[41]. Briefly, the inhibition reactions were performed in 50-µL volumes at 37 °C in black, half-area, 96-well plates. The sirtuin enzyme (0.25 µM) was preincubated with different concentrations of the peptide S2P04 (0.0064–50 µM for SIRT1 and SIRT2, 0.5–100 µM for SIRT3) or TB (0.16–150 µM for SIRT1–SIRT3), and 1 mM NAD^+ in assay buffer (20 mM Tris, pH 7.8, 150 mM NaCl, 5 mM MgCl2, and 1 mM DTT) for 15 min. Following incubation, the reaction started with the addition of the fluorogenic substrate (5 µM), and product formation was monitored by measuring the fluorescence intensity every 20 s for 5 min (SIRT2) or 30 min (SIRT1 and SIRT3) in a BioTek Synergy H1 microplate reader at λex = 320 nm and λem = 408 nm (gain = 130 and read height = 7 mm). Initial rates of product formation were determined by a linear regression of the plot of fluorescence intensity vs. time and normalized relative to 0% (max inhibitor) and 100% (no inhibitor) controls. The assay was repeated to determine the IC50 values of all BuK peptides for SIRT2. IC50 values were determined by nonlinear regression of the plot of the normalized initial rate vs. inhibitor concentration using GraphPad Prism. The determined IC50 values are provided in Supplementary Table 2, and inhibition curves can be seen in Supplementary Fig. 20.
# SIRT2 [1] = target: T2, SIRT2 (Homo sapiens, UniProt Q8IXJ6); assay: SIRT2 inhibition assay for thiomyristoyl peptides
# T2 sequence (Q8IXJ6 1-389): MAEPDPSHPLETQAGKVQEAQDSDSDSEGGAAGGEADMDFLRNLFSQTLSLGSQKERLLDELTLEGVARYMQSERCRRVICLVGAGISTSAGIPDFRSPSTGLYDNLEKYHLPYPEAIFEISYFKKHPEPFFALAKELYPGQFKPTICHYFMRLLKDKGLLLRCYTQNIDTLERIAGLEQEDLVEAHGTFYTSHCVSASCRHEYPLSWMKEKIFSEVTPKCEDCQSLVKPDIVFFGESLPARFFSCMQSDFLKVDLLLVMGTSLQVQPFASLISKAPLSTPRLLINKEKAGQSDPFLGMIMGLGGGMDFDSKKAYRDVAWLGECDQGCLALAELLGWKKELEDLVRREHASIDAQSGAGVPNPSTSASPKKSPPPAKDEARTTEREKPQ
# Procedure: Assays were performed in 40-µL volumes at 37 °C in black, 384-well plates. […] Following incubation, the reaction started with the addition of the fluorogenic substrate (5 µM), and product formation was monitored by measuring the fluorescence intensity every 20 s for 5 min (SIRT2) in a BioTek Synergy H1 microplate reader at λex = 320 nm and λem = 408 nm (gain = 130 and read height = 7 mm). Initial rates were determined using the plot of fluorescence vs. time for linear portions of each curve. IC50 values were then determined using GraphPad Prism to fit a nonlinear regression to the normalized rates vs. inhibitor concentration.
# SIRT2 [2] = target: T2, SIRT2; assay: SIRT2 inhibition assay, no preincubation
# Procedure: The inhibition assay was performed using a universal continuous sirtuin substrate. Assays were performed in 40-µL volumes at 37 °C in black, 384-well plates. Five micrometers of substrate was incubated with different concentrations of peptide or TM (0.5–1000 nM in DMF, 20% DMF final concentration) for 2 min in assay buffer (20 mM Tris, pH 7.8, 150 mM NaCl, 5 mM MgCl2, 1 mM DTT, and 1 mM NAD^+). Following incubation, the reaction started with the addition of SIRT2 (10 nM), and product formation was monitored by measuring the fluorescence intensity every 20 s for 10 min (SIRT2) in a BioTek Synergy H1 microplate reader at λex = 320 nm and λem = 408 nm (gain = 130 and read height = 7 mm). Initial rates were determined using the plot of fluorescence vs. time for linear portions of each curve. The IC50 value was determined using GraphPad Prism to fit a nonlinear regression to the normalized rates vs. inhibitor concentration (Supplementary Fig. 30).
structure (smiles),measurement,setting,value
CCCCCCCCCCCCCC(=S)NCCCC[C@H](NC(=O)[C@@H](NC(=O)[C@@H](NC(=O)[C@@H](N)CS)[C@@H](C)O)C(C)C)C(=O)N[C@H](C(=O)N[C@@H](CO)C(=O)N[C@@H](CC(C)C)C(N)=O)[C@@H](C)O [S2P03-tMyK] (H-CTV[Lys(thiomyristoyl)]TSL-NH2),IC50,SIRT1,400 ± 100 nM
same,IC50,"SIRT2 [1]; 10 nM SIRT2, 15 min preincubation, 5 µM substrate, n = 2",10 ± 3 nM
same,activity at 0.000465917 µM,SIRT2 [1]; inhibitor 0.465917 nM,102%
same,"%Activity, SIRT2","SIRT2 [1]; inhibitor 0.465917 nM, 0.000465917 µM",98.0615%
same,"%Activity, SIRT2","SIRT2 [1]; inhibitor 0.931834 nM, 0.000931834 µM",113.937% and 81.1704%
same,activity at 0.00186367 µM,SIRT2 [1]; inhibitor 1.86367 nM,99.7%
same,"%Activity, SIRT2","SIRT2 [1]; inhibitor 1.86367 nM, 0.00186367 µM",95.1685%
same,activity at 0.00372734 µM,SIRT2 [1]; inhibitor 3.72734 nM,96.6%
same,"%Activity, SIRT2","SIRT2 [1]; inhibitor 3.72734 nM, 0.00372734 µM",82.1027%
same,"%Activity, SIRT2","SIRT2 [1]; inhibitor 7.45468 nM, 0.00745468 µM",52.8299% and 73.9018%
same,activity at 0.0149094 µM,SIRT2 [1]; inhibitor 14.9094 nM,40.8%
same,"%Activity, SIRT2","SIRT2 [1]; inhibitor 14.9094 nM, 0.0149094 µM",45.2416%
same,"%Activity, SIRT2","SIRT2 [1]; inhibitor 477.099 nM, 0.477099 µM",3.151% and -3.151%
same,"%Activity, SIRT2","SIRT2 [1]; inhibitor 954.198 nM, (Activity/Activity w/o inhibitor)*100, single trials, 0.954198 µM",11.9872% and 2.232%
same,change in IC50 without preincubation of enzyme,SIRT2 [2],insignificant change in IC50
